Assay results reported in PubChem BioAssay AID720605 (Broad Institute, 2013).

System: U-251 glioblastoma viability, Alamar Blue, 8-48 h
Assay: cytotoxicity in U-251 CNS tumor cells – cell-based, Alamar Blue fluorescence, 8/24/48 h, dry powder, HRAS target identification, dose response (AID 720605)

`CC(C)(C)OC(=O)NCCOCCOCCOc1ccc(N(C(=O)CCl)C(C(=O)NCCc2ccccc2)c2cccs2)cc1Cl` (stereo not given) gave an AC50 (measured here: 8 h treatment) of 297 nM, an AC50 (measured here: 24 h treatment) of 229 nM and an AC50 (measured here: 48 h treatment) of 330 nM.

In the case of `Cc1onc(C(=O)N2CCN(C(c3ccc(Cl)cc3)c3ccc(Cl)cc3)CC2)c1[N+](=O)[O-]`, the AC50 (measured here: 8 h treatment) is reported as 383 nM, the AC50 (measured here: 24 h treatment) is reported as 359 nM and the AC50 (measured here: 48 h treatment) is reported as 293 nM.

Work on `C#CCCCC(=O)NCCOCCOCCOc1ccc(N(C(=O)CCl)C(C(=O)NCCc2ccccc2)c2cccs2)cc1Cl` (stereo not given) yielded an AC50 (measured here: 8 h treatment) of 1990 nM, an AC50 (measured here: 24 h treatment) of 920 nM and an AC50 (measured here: 48 h treatment) of 855 nM.

`COC(=O)c1ccc([C@@H]2c3[nH]c4ccccc4c3C[C@@H](C(=O)OC)N2C(=O)CCl)cc1` was tested, and the AC50 (measured here: 8 h treatment) was 14.4 nM, the AC50 (measured here: 24 h treatment) was 42.7 nM and the AC50 (measured here: 48 h treatment) was 45.4 nM.

`COc1ccc(N(C(=O)CCl)C(C(=O)NCCc2ccccc2)c2cccs2)cc1Cl` (stereo not given) showed an AC50 (measured here: 8 h treatment) of 66.3 nM, an AC50 (measured here: 24 h treatment) of 54.3 nM and an AC50 (measured here: 48 h treatment) of 51 nM.
